{"source": "ChEMBL document CHEMBL1158944", "about": "“Chemistry of Sponges, XII. A New Dihydric Phenol from the Sponge Fasciospongia sp” (J Nat Prod, 1991)", "key": {"[1]": {"test_system": "Bacillus subtilis", "assay": "Antimicrobial activity against Bacillus subtilis at 100 ug/ml", "format": "functional, organism-based"}, "[2]": {"test_system": "Staphylococcus aureus", "assay": "Antimicrobial activity against Staphylococcus aureus at 100 ug/ml", "format": "functional, organism-based"}}, "note": "Activity calls are given as the source filed them. The calls are words filed in the database; no cut-off is given here.", "data": [{"smiles": "COc1cc(C/C=C(/C)CC/C=C(\\C)CC/C=C(\\C)CCC=C(C)C)cc(O)c1O", "values": [{"measurement": "Activity", "setting": "[1]", "value": "Active"}, {"measurement": "Activity", "setting": "[2]", "value": "Active"}]}]}
